Holding throughout (format): in vivo
Common to all, as to conditions: active ingredient amount 31 g/ha, 14th day after application

The test system of assay [1] is corn (Zea mays L.). Briefly: Test Example 2: soil application on the day after sowing, growth inhibition rate on 14th day. The method in brief:
(§1)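 Read-out is visual percent growth inhibition 14 days post-application, scaled from 0 (as non-treated) to 100 (complete kill). Treatment: soil application by small sprayer the day after sowing, compound formulations diluted in water equivalent to 1,000 L/ha.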

Assay [2] concerns barnyardgrass (Echinochloa crus-qalli L.). The description is as above. Put shortly:
as §1

For assay [3], the system named is soybean (Glycine max Merr.). The assay is described as above. The method in brief: as §1
Assay [4] deals with redroot pigweed (Amaranthus retroflexus L.). The description is as above. Put shortly: as §1
The test system of assay [5] is wheat (Triticum aestivum L.). The description is as above. Put shortly:
as §1

Assay [6] relates to green foxtail (Setaria viridis L.). Described as above. Put shortly: as §1
Assay [7] has as its system crabgrass (Digitaris sanquinalis L.). The assay is described as above. Put shortly:
as §1

Assay [8] relates to rice (Oryza sativa L.). Described as above. Put shortly:
as §1

The subject of assay [9] is velvetleaf (Abutilon theophrasti MEDIC.). The assay is described as above. Put shortly: as §1
The subject of assay [10] is prickly sida (Sida spinosa L.). The description is as above. Put shortly:
as §1

For assay [11], the system named is corn (Zea mays L.). In words: Test Example 1: foliar treatment, growth inhibition rate on 14th day. Put shortly:
(§2)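 Using a small sprayer, formulated compound in water (0.1 vol % surfactant, 1,000 L/ha) was applied to seedlings grown from seed in upland soil. Fourteen days on, growth state was observed and expressed as percent inhibition from 0 to 100.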

Assay [12] relates to barnyardgrass (Echinochloa crus-qalli L.). Described as above. The method in brief: as §2
For assay [13], the system named is soybean (Glycine max Merr.). The description is as above. Put shortly:
(§3)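 Compounds applied once to leaves of pot-grown plants; wild oat at 0.4–1.2 leaf, foxtail 0.5–3.2, rice 0.2–2.7, soybean primary leaf. Inhibition estimated by eye on day 14.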

Assay [14] concerns italian ryegrass (Lolium multiflorum Lam.). The assay is described as above. The method in brief: as §2
The test system of assay [15] is redroot pigweed (Amaranthus retroflexus L.). Described as above. Put shortly:
as §2

For assay [16], the system named is wheat (Triticum aestivum L.). The description is as above. Put shortly:
as §2

In assay [17] the test system is green foxtail (Setaria viridis L.). The assay is described as above. Put shortly:
as §3

The test system of assay [18] is rice (Oryza sativa L.). The description is as above. The method in brief: as §3
Assay [19] deals with crabgrass (Digitaria sanquinalis L.). Described as above. Put shortly: as §2
In assay [20] the test system is wild oat (Avena fatua L.). The description is as above. Put shortly:
as §3

Setting [21] is: visual, 0 = non-treated, 100 = complete kill.

On to `C=CCOC(=O)Oc1c(C)nn(C)c(=O)c1-c1cc(Oc2cnc3cc(Cl)ccc3n2)ccc1C` [Compound 3-58], for which the “Growth inhibition rate (%) Corn” value in the assay with corn (Zea mays L.) [1] is listed as 0%; with corn (Zea mays L.) [11] (setting [21]), 55%. Further, the “Growth inhibition rate (%) Barnyardgrass” value in [2] came to 85%; in [12] (setting [21]), 100%. Also, the “Growth inhibition rate (%) Soybean” value in [3] stood at 0%; in assay [13] (setting [21]), 25%. The “Growth inhibition rate (%) Redroot pigweed” value in assay [4] and in [15] (setting [21]) was 0% throughout. The “Growth inhibition rate (%) Wheat” value in [5] worked out at 0%; in assay [16] (setting [21]) it was 98%. For the same compound, the results for the “Growth inhibition rate (%) Green foxtail” value in assay [6] and in [17] (setting [21]) were 75% and 100%, respectively. The “Growth inhibition rate (%) Crabgrass” value in assay [7] came out at 10%; in assay [19] (setting [21]), 99%. The “Growth inhibition rate (%) Rice” value in the assay on rice (Oryza sativa L.) [8] is 0%; in the assay with rice (Oryza sativa L.) [18] (setting [21]), 50%. The “Growth inhibition rate (%) Velvetleaf” value in [9] came out at 0%. The “Growth inhibition rate (%) Prickly sida” value in assay [10] stood at 0%. For the same compound, the “Growth inhibition rate (%) Italian ryegrass” value in assay [14] (setting [21]) was found to be 99%. Also, in assay [20] (setting [21]), the “Growth inhibition rate (%) Wild oat” value is given as 95%.

As for `CC(=O)Oc1c(C)nn(C)c(=O)c1-c1cc(Oc2ncc(C(F)(F)F)cc2Cl)ccc1C` [1-40], the “Growth inhibition rate (%) Corn” value is reported as 30% in the assay on corn (Zea mays L.) [1] and 100% with corn (Zea mays L.) [11]. Moreover, the “Growth inhibition rate (%) Barnyardgrass” value in assay [2] and in assay [12] was 100% in each case. Further, the “Growth inhibition rate (%) Soybean” value worked out at 0% in [3] and 10% in assay [13]. Besides, the “Growth inhibition rate (%) Redroot pigweed” value in assay [4] is listed as 0%; in assay [15] it was 40%. The “Growth inhibition rate (%) Wheat” value came to 0% in assay [5] and 93% in [16]. Also, the “Growth inhibition rate (%) Green foxtail” value in [6] and in assay [17] was 100% each time. Further, the results for the “Growth inhibition rate (%) Crabgrass” value in assay [7] and in assay [19] were 100% and 99%, respectively. Also, the “Growth inhibition rate (%) Rice” value in the assay with rice (Oryza sativa L.) [8] was 60%; in the assay on rice (Oryza sativa L.) [18] it was 80%. Further, the “Growth inhibition rate (%) Velvetleaf” value in assay [9] was 0%. The “Growth inhibition rate (%) Prickly sida” value in [10] was 0%. Besides, the “Growth inhibition rate (%) Italian ryegrass” value in assay [14] worked out at 100%. Moreover, the “Growth inhibition rate (%) Wild oat” value in assay [20] is 98%.

In the case of `Cc1ccc(Oc2cnc3cc(Cl)ccc3n2)cc1-c1c(OC(=O)C(F)(F)F)c(C)nn(C)c1=O` [Compound 3-52], the “Growth inhibition rate (%) Corn” value was found to be 0% in the assay on corn (Zea mays L.) [1] and 35% with corn (Zea mays L.) [11] (setting [21]). Besides, the “Growth inhibition rate (%) Barnyardgrass” value is reported as 99% in [2] and 100% in assay [12] (setting [21]). Further, the “Growth inhibition rate (%) Soybean” value turned out to be 0% in assay [3] and 20% in [13] (setting [21]). Moreover, the “Growth inhibition rate (%) Redroot pigweed” value in assay [4] and in [15] (setting [21]) was 0% each time. The results for the “Growth inhibition rate (%) Wheat” value in [5] and in [16] (setting [21]) were 0% and 10%, respectively. In addition, the “Growth inhibition rate (%) Green foxtail” value in assay [6] and in [17] (setting [21]) was 100% throughout. Besides, the “Growth inhibition rate (%) Crabgrass” value in assay [7] and in assay [19] (setting [21]) was 95% in each case. Further, the “Growth inhibition rate (%) Rice” value turned out to be 0% with rice (Oryza sativa L.) [8] and 70% in the assay on rice (Oryza sativa L.) [18] (setting [21]). Further, the “Growth inhibition rate (%) Velvetleaf” value in assay [9] was 0%. In addition, the “Growth inhibition rate (%) Prickly sida” value in [10] is listed as 0%. In addition, in assay [14] (setting [21]), the “Growth inhibition rate (%) Italian ryegrass” value was 90%. Moreover, the “Growth inhibition rate (%) Wild oat” value in assay [20] (setting [21]) amounted to 20%.

`Cc1c(Oc2ncc(C(F)(F)F)cc2Cl)cccc1-c1c(O)cnn(CC2CC2)c1=O` [1-166]: the “Growth inhibition rate (%) Corn” value is 0% with corn (Zea mays L.) [1] and 98% with corn (Zea mays L.) [11]. Further, the “Growth inhibition rate (%) Barnyardgrass” value in assay [2] was 80%; in assay [12], 95%. For the same compound, the “Growth inhibition rate (%) Soybean” value in assay [3] turned out to be 0%; in [13], 15%. Moreover, the “Growth inhibition rate (%) Redroot pigweed” value in [4] and in [15] was 0% in each case. For the same compound, the “Growth inhibition rate (%) Wheat” value in assay [5] is recorded as 0%; in assay [16], 10%. The “Growth inhibition rate (%) Green foxtail” value in assay [6] amounted to 80%; in assay [17], 100%. For the same compound, the figures for the “Growth inhibition rate (%) Crabgrass” value in assay [7] and in assay [19] were 95% and 99%, respectively. The “Growth inhibition rate (%) Rice” value is recorded as 0% in the assay with rice (Oryza sativa L.) [8] and 10% in the assay with rice (Oryza sativa L.) [18]. For the same compound, in assay [9], the “Growth inhibition rate (%) Velvetleaf” value amounted to 0%. For the same compound, in assay [10], the “Growth inhibition rate (%) Prickly sida” value is 0%. Also, the “Growth inhibition rate (%) Italian ryegrass” value in [14] turned out to be 30%. Besides, the “Growth inhibition rate (%) Wild oat” value in [20] amounted to 93%.

`CC(=O)Oc1c(C)nn(C)c(=O)c1-c1cc(Oc2ncc(Br)cc2Cl)ccc1C` [Compound 2-135]: the “Growth inhibition rate (%) Corn” value is listed as 0% in the assay with corn (Zea mays L.) [1] and 93% in the assay on corn (Zea mays L.) [11]. For the same compound, the entries for the “Growth inhibition rate (%) Barnyardgrass” value in assay [2] and in assay [12] were 90% and 93%, respectively. Further, the “Growth inhibition rate (%) Soybean” value amounted to 10% in assay [3] and 0% in assay [13]. Further, the “Growth inhibition rate (%) Redroot pigweed” value in assay [4] and in assay [15] was 0% in each case. For the same compound, the “Growth inhibition rate (%) Wheat” value in assay [5] stood at 0%; in [16] it was 88%. Moreover, the figures for the “Growth inhibition rate (%) Green foxtail” value in [6] and in assay [17] were 90% and 95%, respectively. Further, the results for the “Growth inhibition rate (%) Crabgrass” value in assay [7] and in assay [19] were 75% and 90%, respectively. In addition, the figures for the “Growth inhibition rate (%) Rice” value in the assay with rice (Oryza sativa L.) [8] and with rice (Oryza sativa L.) [18] were 0% and 80%, respectively. Moreover, the “Growth inhibition rate (%) Velvetleaf” value in assay [9] is on record as 0%. In [10], the “Growth inhibition rate (%) Prickly sida” value was determined as 0%. Also, the “Growth inhibition rate (%) Italian ryegrass” value in assay [14] is 95%. For the same compound, the “Growth inhibition rate (%) Wild oat” value in assay [20] was 90%.

In the case of `C#CC(=O)Oc1c(C)nn(C)c(=O)c1-c1cc(Oc2cnc3cc(Cl)ccc3n2)ccc1C` [Compound 3-82], the “Growth inhibition rate (%) Corn” value in the assay on corn (Zea mays L.) [1] came out at 0%; in the assay on corn (Zea mays L.) [11] (setting [21]), 35%. The “Growth inhibition rate (%) Barnyardgrass” value in [2] is listed as 99%; in assay [12] (setting [21]) it was 100%. Besides, the “Growth inhibition rate (%) Soybean” value in [3] and in assay [13] (setting [21]) was 0% throughout. Besides, the “Growth inhibition rate (%) Redroot pigweed” value worked out at 0% in [4] and 10% in assay [15] (setting [21]). Further, the “Growth inhibition rate (%) Wheat” value is reported as 0% in assay [5] and 98% in assay [16] (setting [21]). The “Growth inhibition rate (%) Green foxtail” value in assay [6] is listed as 99%; in [17] (setting [21]) it was 100%. Further, the results for the “Growth inhibition rate (%) Crabgrass” value in [7] and in [19] (setting [21]) were 85% and 98%, respectively. Moreover, the “Growth inhibition rate (%) Rice” value is recorded as 0% with rice (Oryza sativa L.) [8] and 93% in the assay with rice (Oryza sativa L.) [18] (setting [21]). The “Growth inhibition rate (%) Velvetleaf” value in assay [9] worked out at 0%. The “Growth inhibition rate (%) Prickly sida” value in assay [10] worked out at 0%. Also, the “Growth inhibition rate (%) Italian ryegrass” value in assay [14] (setting [21]) amounted to 98%. Besides, in [20] (setting [21]), the “Growth inhibition rate (%) Wild oat” value was 98%.

Regarding `COCOc1c(C)nn(C)c(=O)c1-c1cc(Oc2cnc3cc(Cl)ccc3n2)ccc1C` [Compound 3-40], the “Growth inhibition rate (%) Corn” value in the assay on corn (Zea mays L.) [1] is 10%; with corn (Zea mays L.) [11], 25%. In addition, the “Growth inhibition rate (%) Barnyardgrass” value stood at 90% in assay [2] and 99% in assay [12]. Moreover, the “Growth inhibition rate (%) Soybean” value amounted to 0% in assay [3] and 10% in [13]. Besides, the “Growth inhibition rate (%) Redroot pigweed” value in [4] and in [15] was 0% throughout. For the same compound, the “Growth inhibition rate (%) Wheat” value in [5] was found to be 0%; in [16] it was 98%. Moreover, the “Growth inhibition rate (%) Green foxtail” value amounted to 40% in [6] and 99% in assay [17]. The “Growth inhibition rate (%) Crabgrass” value in assay [7] is recorded as 10%; in assay [19], 99%. For the same compound, the figures for the “Growth inhibition rate (%) Rice” value in the assay with rice (Oryza sativa L.) [8] and in the assay with rice (Oryza sativa L.) [18] were 10% and 85%, respectively. Also, in assay [9], the “Growth inhibition rate (%) Velvetleaf” value stood at 0%. Moreover, the “Growth inhibition rate (%) Prickly sida” value in assay [10] is recorded as 0%. Also, the “Growth inhibition rate (%) Italian ryegrass” value in assay [14] is 98%. Moreover, the “Growth inhibition rate (%) Wild oat” value in assay [20] is 98%.

For the origin of these results see patent publication US10870638B2, “Pyridazinone compound or its salt, and herbicide containing it” (ISHIHARA SANGYO KAISHA, LTD., priority 2016, dated 2020).
